From ChEMBL document CHEMBL2086293, “Diaminopyridine-based potent and selective mps1 kinase inhibitors binding to an unusual flipped-Peptide conformation” (ACS Med Chem Lett, 2012) come the findings set out here.

A word on the AUC: it is concentration integrated over time. Read a low AUC as low exposure. As a reminder, the IC50 is the concentration that gives 50% inhibition. A lower IC50 goes with greater potency in that assay. The term Cmax denotes the maximum level reached in the sampled fluid or tissue. In general, Tmax refers to the time at which the peak concentration occurs. Usually inhibition stands for the relative decrease from the control value, in per cent.

Series [1] is described as follows: AUC in mouse at 25 mg/kg, po. The settings on record: plasma. Also on record: dose 25 mg/kg, route oral. In kind it is ADME, organism-based.
Series [2] addresses Mitogen-activated protein kinase 8 (Homo sapiens, UniProt P45983). Kind of series: Inhibition of JNK1-mediated ATF2 phosphorylation after 1 hr by ELISA. In general terms: ELISA stands for enzyme-linked immunosorbent assay.
Series [3] concerns A549. The experiment in a line: Antiproliferative activity against human A549 cells after 72 hrs by WST8 assay. Type of series: functional, cell-based. The settings on record: A549, 72 h. (Tetrazolium assays rely on reduction of a dye to a coloured formazan, in cell work by metabolically active cells.)
A short description of series [4]: Cmax in mouse at 25 mg/kg, po. In kind it is ADME, organism-based. Also on record: dose 25 mg/kg, route oral. The following applies: in vivo.
For series [5], the system named is A549. Kind of series: Antitumor activity against human A549 cells xenografted in po dosed BALB/cA Jcl-nu/nu mouse assessed as tumor growth inhibition administered QD for 19 days. Type of series: functional, organism-based. Background: Xenograft models place foreign cells or tissue in a host animal.
Series [6] is described as follows: Tmax in mouse at 25 mg/kg, po. Type of series: ADME, organism-based. Also on record: dose 25 mg/kg, route oral. The settings on record: in vivo.
In series [7] the test system is A549. The experiment in a line: Antitumor activity against human A549 cells xenografted in BALB/cA Jcl-nu/nu mouse assessed as tumor growth inhibition at 100 mg/kg, po administered QD for 19 days relative to vehicle-treated control. The settings on record: 456 h, read-out: TGI.
Series [8] addresses Receptor-type tyrosine-protein kinase FLT3 (Homo sapiens) (UniProt P36888). The experiment in a line: Inhibition of FLT3 at 1 uM.
Series [9] has as its system T1, Receptor-type tyrosine-protein kinase FLT3 (Homo sapiens), P36888 [D835Y].
T1 sequence (whole entry): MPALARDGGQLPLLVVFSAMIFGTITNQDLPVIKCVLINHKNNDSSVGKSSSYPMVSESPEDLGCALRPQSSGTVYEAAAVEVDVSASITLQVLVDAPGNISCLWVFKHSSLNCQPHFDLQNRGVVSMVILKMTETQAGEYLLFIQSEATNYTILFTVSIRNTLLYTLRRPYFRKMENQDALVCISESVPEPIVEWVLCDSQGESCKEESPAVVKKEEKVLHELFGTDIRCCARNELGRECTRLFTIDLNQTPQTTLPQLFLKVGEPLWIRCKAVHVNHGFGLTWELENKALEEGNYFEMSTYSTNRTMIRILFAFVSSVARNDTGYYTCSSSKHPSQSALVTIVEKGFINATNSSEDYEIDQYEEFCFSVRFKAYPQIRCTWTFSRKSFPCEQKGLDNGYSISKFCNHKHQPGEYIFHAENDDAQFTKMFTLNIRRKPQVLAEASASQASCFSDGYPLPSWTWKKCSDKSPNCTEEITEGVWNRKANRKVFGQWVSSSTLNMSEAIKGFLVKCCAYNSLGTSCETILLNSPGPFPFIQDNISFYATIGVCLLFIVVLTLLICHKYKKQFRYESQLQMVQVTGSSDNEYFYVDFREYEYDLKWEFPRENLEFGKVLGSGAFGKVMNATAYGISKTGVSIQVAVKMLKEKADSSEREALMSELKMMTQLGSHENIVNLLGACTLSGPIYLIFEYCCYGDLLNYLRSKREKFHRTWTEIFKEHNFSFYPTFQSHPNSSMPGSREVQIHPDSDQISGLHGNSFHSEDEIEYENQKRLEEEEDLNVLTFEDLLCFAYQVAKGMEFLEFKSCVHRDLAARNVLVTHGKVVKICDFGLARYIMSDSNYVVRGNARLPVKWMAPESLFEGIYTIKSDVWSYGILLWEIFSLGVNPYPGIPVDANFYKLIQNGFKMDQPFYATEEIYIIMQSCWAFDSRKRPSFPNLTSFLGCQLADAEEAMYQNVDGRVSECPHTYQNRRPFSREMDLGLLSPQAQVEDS
The experiment in a line: Inhibition of FLT3 D835Y mutant at 1 uM.

The test system of the next series is Mus musculus. Kind of series: Toxicity in BALB/cA Jcl-nu/nu mouse xenografted with human A549 cells assessed as body weight loss at 100 mg/kg, po administered QD for 19 days. In kind it is organism-based. Details: dose 100 mg/kg, route oral. The following applies: in vivo, 456 h.

Sequence of Mitogen-activated protein kinase 8 (P45983 whole entry): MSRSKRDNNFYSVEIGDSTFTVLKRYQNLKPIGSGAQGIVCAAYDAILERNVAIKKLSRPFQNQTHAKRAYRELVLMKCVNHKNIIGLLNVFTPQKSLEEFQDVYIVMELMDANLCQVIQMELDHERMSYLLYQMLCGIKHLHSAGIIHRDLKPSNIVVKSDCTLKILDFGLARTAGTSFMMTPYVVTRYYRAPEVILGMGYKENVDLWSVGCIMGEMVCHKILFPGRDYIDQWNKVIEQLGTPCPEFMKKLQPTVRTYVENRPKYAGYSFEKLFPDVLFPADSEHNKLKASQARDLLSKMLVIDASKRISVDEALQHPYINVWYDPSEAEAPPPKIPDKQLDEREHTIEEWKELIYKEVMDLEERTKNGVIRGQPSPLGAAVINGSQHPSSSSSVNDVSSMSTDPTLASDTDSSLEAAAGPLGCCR

With `CC(C)(C)Nc1nc(Nc2ccc(C(N)=O)cc2)cc(N)c1C#N`, the area under the curve (AUC) in series [1] was determined as 6600 ng·h/mL. For the same compound, the concentration for half-maximal inhibition (IC50) in series [2] stood at 231 nM; with A549 [3], 840 nM. The peak level in [4] (Cmax) was 3540 ng/mL. Moreover, the TGI entry with A549 [5] was “Dose-dependent effect”. The time to peak (Tmax) in series [6] amounted to 15 min. Moreover, the inhibition in vivo at 100 mg/kg in the series with A549 [7] worked out at 47%. Further, the inhibition turned out to be 50% in [8] and 86% in series [9]. Besides, the Activity result in the series with Mus musculus was “Non-toxic”.
In series [2], `CCOc1nc(C(=O)NCc2ccccc2)cc(N)c1C#N` displayed an IC50 of 350 nM.
In the case of `CCOc1nc(NC(=O)Cc2ccccc2)cc(N)c1C#N`, half-maximal inhibition in [2] (IC50) required 260 nM.
In turn, `CCOc1nc(Nc2ccccc2)cc(N)c1C#N` displayed an IC50 in [2] of 1040 nM.
Turning to `CCOc1nc(Nc2ccc(C(N)=O)cc2)cc(N)c1C#N`, the half-maximal inhibitory concentration (IC50) in [2] stood at 190 nM; with A549 [3] it was 9500 nM.
Take `CCOc1nc(NCCc2ccccc2)cc(N)c1C#N`: the IC50 in series [2] was > 100000 nM.
